From US9101620B2, “Polymorph of 3-(substituteddihydroisoindolinone-2-yl)-2,6-dioxopiperidine, and pharmaceutical compositions thereof” (Nanjing Cavendish Bio-Engineering Technology Co., Ltd., priority 2009, dated 2015)

How the values were obtained:
Format in all cases: physicochemical
[1] = Oxidation destruction (30% H2O2), related substances by HPLC; settings: for Major impurity, peak tR5.649-5.660 / Major impurity, peak tR10.372-10.401 / Major impurity, peak tR32.279-32.318 / Major impurity, peak tR35.063-35.098 / Total impurities generated by oxidation destruction: 30% H2O2, room temperature, 2 hour; for Chemical stability (in words): oxidating condition / oxidation destroy experiment
Protocol: (§1) Oxidation destruction: 50 mg of sample weighted accurately was added into measuring flask of 100 mL, and 10 mL 30% H2O2 was added. After standing at room temperature for 2 hour, the mixture was diluted with mobile phase to scale and shook to be homogeneous, and determined by HPLC.
(§2) HPLC conditions and system applicability: octadecylsilane bonded silica as the filler; 0.01 mol/L of potassium dihydrogen phosphate (adjusted to pH 3.5 by phosphoric acid)-methanol-acetonitrile (80:15:5) as the mobile phase; detection wavelength was 240 nm; the number of theoretical plates should be not less than 2000, calculated according to the peak of lenalidomide. The resolution of the peak of 3-(4-amino-1-oxo-1,3-dihydro-2H-isoindole-2-yl)-piperidine-2,6-dione from the peaks of adjacent impurities should meet requirements.
(§3) Determination method: sample was dissolved in mobile phase to be the solution containing 0.5 mg per 1 mL. 20 μL of such solution was injected into liquid chromatograph and chromatogram was recorded until fourfold the retention time of major component peak. If there were impurities peaks in the chromatogram of sample solution, total impurities and sole impurity were calculated by normalization method on the basis of peak area.

[2] = Acid destruction (0.1 mol/L HCl), related substances by HPLC; settings: for Major impurity, peak tR4.717-4.737 / Major impurity, peak tR7.367-7.381 / Major impurity, peak tR11.067-11.100 / Total impurities generated by 0.1 mol/L acid destruction for 1 hour: 0.1 mol/L HCl, room temperature, 1 hour; for Chemical stability (in words): acid condition / 0.1 mol/L diluted HCl solution
Protocol: as §1, with “Acid” for “Oxidation”, “0.1 mol/L HCl solution” for “30% H2O2”, “1” for “2”, “hour, an equal amount of 0.1 mol/L NaOH solution was added for neutralization. Then” for “hour,”
as §2, §3

[3] = Destruction test: impurities in raw materials before destruction (HPLC); settings: for Total impurities in raw materials before destruction: HPLC peak area normalization
From the text: The methods of destruction experiment of the Polymorph I of this invention (hereinafter referred to as “Polymorph I”) contrasting with the Polymorph A and B of 3-(4-amino-1-oxo-1,3-dihydro-2H-isoindole-2-yl)-piperidine-2,6-dione prepared by the method in CN 1871003A (hereinafter referred to as “Polymorph A” and “polymorph B”) and results of stability are followed:
as §2, §3

Compound	Major impurity, peak tR5.649-5.660 [1]	Major impurity, peak tR10.372-10.401 [1]	Major impurity, peak tR32.279-32.318 [1]	Major impurity, peak tR35.063-35.098 [1]	Total impurities generated by oxidation destruction [1]	Chemical stability (in words) [1]	Major impurity, peak tR4.717-4.737 [2]	Major impurity, peak tR7.367-7.381 [2]	Major impurity, peak tR11.067-11.100 [2]	Total impurities generated by 0.1 mol/L acid destruction for 1 hour [2]	Chemical stability (in words) [2]	Major impurity, peak tR5.872-5.948 [3]	Major impurity, peak tR6.847-6.855 [3]	Major impurity, peak tR10.961-11.165 [3]	Total impurities in raw materials before destruction [3]
Nc1cccc2c1CN(C1CCC(=O)NC1=O)C2=O (single isomer, unassigned) [Polymorph A, 3-(4-amino-1-oxo-1,3-dihydro-2H-isoindole-2-yl)-piperidine-2,6-dione]	0.39%	0.08%	0.08%	0.14%	impurities: 0.82%	poor chemical stability	0.33%	0.72%	0.04%	impurities: 1.13%	poor chemical stability	0.01%	0.01%	0.04%	impurities: 0.06%
Nc1cccc2c1CN(C1CCC(=O)NC1=O)C2=O (single isomer, unassigned) [Polymorph B, 3-(4-amino-1-oxo-1,3-dihydro-2H-isoindole-2-yl)-piperidine-2,6-dione]	0.36%	0.11%	0.10%	0.13%	impurities: 0.89%	poor chemical stability	0.33%	0.72%	0.04%	impurities: 1.22%	poor chemical stability	0.01%	0.01%	0.05%	impurities: 0.07%
